# Source: patent US20220002279A1, “NOVEL IMIDAZOLE DERIVATIVE” (priority 2018, published 2022)
# What was measured:
# [1] = molecular target: T1, Escherichia coli LpxC enzyme (Escherichia coli, UniProt P0A725); test: Inhibitory activity on Escherichia coli LpxC enzyme (fluorescamine method); type: biochemical; details: fluorescamine detection; 3.1 nmol/L enzyme, 20 μmol/L substrate, pH 6.5, 120 min; read-out: IC50 (inhibitory activity on Escherichia coli LpxC enzyme, Fluoresamine method)
# T1 construct: made in house; host or cells: Escherichia coli
# T1 sequence (P0A725 1-305): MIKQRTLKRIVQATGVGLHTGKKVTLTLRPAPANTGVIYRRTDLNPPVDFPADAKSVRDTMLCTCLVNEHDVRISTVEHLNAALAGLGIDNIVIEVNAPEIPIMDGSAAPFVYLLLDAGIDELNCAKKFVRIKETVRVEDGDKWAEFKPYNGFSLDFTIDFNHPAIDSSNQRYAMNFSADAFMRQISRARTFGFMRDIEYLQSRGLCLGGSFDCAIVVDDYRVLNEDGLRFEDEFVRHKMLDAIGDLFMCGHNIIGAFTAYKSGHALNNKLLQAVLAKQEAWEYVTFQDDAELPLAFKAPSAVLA
# Procedure, shortened: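 LpxC reacted with UDP-3-O-(R-3-hydroxymyristoyl)-N-acetylglucosamine; product amine quantified after fluorescamine stop and pH 8.0 phosphate buffer addition, at 390 nm/495 nm. Inhibition curve built from a range of test compound concentrations.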
# [2] = test system: Escherichia coli strain ATCC25922; test: Antimicrobial activity, MIC by broth microdilution; type: cell-based; details: ATCC25922, 18 h, cation-adjusted Mueller-Hinton broth, about 5×10^5 CFU/mL, 35° C., about 18 hours, read-out: MIC Escherichia coli ATCC25922
# Procedure, shortened: (§1)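 MIC read by eye as the lowest drug level lacking visible growth after roughly 18 h at 35° C. Cells from heart infusion agar, set to McFarland 0.5 and diluted, were inoculated at about 5×10^5 CFU/mL into cation-adjusted Mueller-Hinton broth with compound, per adapted CLSI microdilution.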
# [3] = test system: Klebsiella pneumoniae strain ATCC13883; test: Antimicrobial activity, MIC by broth microdilution; type: cell-based; details: ATCC13883, cation-adjusted Mueller-Hinton broth, about 5×10^5 CFU/mL, 35° C., about 18 hours, read-out: MIC Klebsiella pneumoniae ATCC13883
# Procedure, shortened: as §1
# [4] = test system: Pseudomonas aeruginosa strain ATCC27853; test: Antimicrobial activity, MIC by broth microdilution; type: cell-based; details: ATCC27853, 18 h, cation-adjusted Mueller-Hinton broth, about 5×10^5 CFU/mL, 35° C., about 18 hours, read-out: MIC Pseudomonas aeruginosa ATCC27853
# Procedure, shortened: as §1
# [5] = molecular target: T2, Pseudomonas aeruginosa LpxC enzyme (Pseudomonas aeruginosa, UniProt P47205); test: Inhibitory activity on Pseudomonas aeruginosa LpxC enzyme (fluorescamine method); type: biochemical; details: fluorescamine detection; 3.6 nmol/L enzyme, 20 μmol/L substrate, pH 8.0, 60 min
# T2 construct: made in house; host or cells: Escherichia coli
# T2 sequence (P47205 1-303): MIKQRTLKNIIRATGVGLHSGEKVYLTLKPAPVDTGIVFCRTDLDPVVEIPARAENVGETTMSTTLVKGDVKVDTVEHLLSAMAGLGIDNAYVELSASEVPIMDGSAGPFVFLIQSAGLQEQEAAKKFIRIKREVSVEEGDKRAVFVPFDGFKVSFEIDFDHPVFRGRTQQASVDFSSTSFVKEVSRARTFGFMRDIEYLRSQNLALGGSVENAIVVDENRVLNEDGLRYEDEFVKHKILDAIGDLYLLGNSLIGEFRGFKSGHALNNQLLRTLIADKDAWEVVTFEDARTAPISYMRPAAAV
# Description: Test Example 1 Evaluation of the Inhibitory Activity on Pseudomonas aeruginosa LpxC Enzyme (Fluoresamine Method)
# To assay the activity of Pseudomonas aeruginosa LpxC enzyme, LpxC was reacted with its substrate, UDP-3-O-(R-3-hydroxydecanoyl)-N-acetylglucosamine, and the amount of the reaction product was quantified by the amino groups present in the product.
# Specifically, to 3.6 nmol/L Pseudomonas aeruginosa LpxC enzyme (as acquired by preparing chromosomal DNA from Pseudomonas aeruginosa, obtaining the Pseudomonas aeruginosa LpxC genes by PCR (polymerase chain reaction) using LpxC specific primer, and incorporating the genes into a vector, followed by expression using Escherichia coli), 20 μmol/L UDP-3-O-(R-3-hydroxydecanoyl)-N-acetylglucosamine (Carbosynth) was added, and the mixture was incubated at room temperature for 60 minutes. This reaction was performed in a 40 mmol/L-HEPES buffer solution (pH 8.0) containing 0.02% Brij 35 and 25 nmol/L-zinc chloride. The reaction was terminated by the addition of 1.0 mg/mL-fluorescamine dissolved in a solvent obtained by mixing an equal amount of acetonitrile and dimethylformamide with the reaction mixture, and then, a 0.2 mol/L-sodium phosphate buffer solution (pH 8.0) was added thereto, and the amount of the reaction product was detected at an excitation wavelength/fluorescence wavelength=390 nm/495 nm. An inhibition curve was obtained by performing the aforementioned reaction in the presence of various concentrations of test compounds. From this inhibition curve, the concentration of test compound at which the amount of the reaction product was suppressed by 50% (IC50 value) was determined, which was used as an index for the inhibitory activity on Pseudomonas aeruginosa LpxC enzyme.
Compound,IC50 [1] [nM],MIC [2] [µg/mL],MIC [3] [µg/mL],MIC [4] [µg/mL],IC50 [5] [nM]
"C[C@H](O)c1nccn1Cc1cc(-c2ccc(C#CC3CC3CO)cc2)on1 (stereo in doubt) [Compound 7, (1S)-1-(1-{[5-(4-{[trans-2-(hydroxymethyl)cyclopropyl]ethynyl}phenyl)-1,2-oxazol-3-yl]methyl}-1H-imidazol-2-yl)ethan-1-ol]",15.4,0.25,0.5,16,4.44
"C[C@H](O)c1nccn1Cc1cc(-c2ccc(C#CC3CC3N)cc2)on1 (stereo in doubt) [Compound 9, (1S)-1-{1-[(5-(4-[(trans-2-aminocyclopropyl)ethynyl]phenyl}-1,2-oxazol-3-yl)methyl]-1H-imidazol-2-yl}ethan-1-ol]",183,–,4,16,22.3
"C[C@H](O)c1nccn1Cc1cc(-c2ccc(C#CCCCO)cc2)on1 [Compound 1, 5-{4-[3-({2-[(1S)-1-Hydroxyethyl]-1H-imidazol-1-yl}methyl)-1,2-oxazol-5-yl]phenyl}pent-4-yn-1-ol]",51,1,2,64,13.2
"C[C@H](O)c1nccn1Cc1cc(-c2ccc(C#CCCCO)c(F)c2)on1 [Compound 2, 5-{2-fluoro-4-[3-({2-[(1S)-1-hydroxyethyl]-1H-imidazol-1-yl}methyl)-1,2-oxazol-5-yl]phenyl} pent-4-yn-1-ol]",16.9,1,2,64,6.92
"C[C@H](O)c1nccn1Cc1cc(-c2ccc(C#CCCCO)cc2F)on1 [Compound 3, 5-{3-fluoro-4-[3-({2-[(1S)-1-hydroxyethyl]-1H-imidazol-1-yl}methyl)-1,2-oxazol-5-yl]phenyl}pent-4-yn-1-ol]",16.1,0.5,1,32,4.36
"C[C@H](O)c1nccn1Cc1cc(-c2ccc(C#CC3(N)CC3)cc2)on1 [Compound 4, (1S)-1-{1-[(5-{4-[(1-Aminocyclopropyl)ethynyl]phenyl}-1,2-oxazol-3-yl)methyl]-1H-imidazol-2-yl}ethan-1-ol]",–,0.5,1,64,16.7
"Cc1cc(C#CCCCO)ccc1-c1cc(Cn2ccnc2[C@H](C)O)no1 [Compound 5, 5-{4-[3-({2-[(1S)-1-hydroxyethyl]-1H-imidazol-1-yl}methyl)-1,2-oxazol-5-yl]-3-methylphenyl} pent-4-yn-1-ol]",–,–,16,> 64,132
"C[C@H](O)c1nccn1Cc1cc(-c2ccc(C#CCCO)cc2)on1 [Compound 6, 4-{4-[3-({2-[(1S)-1-hydroxyethyl]-1H-imidazol-1-yl}methyl)-1,2-oxazol-5-yl]phenyl}but-3-yn-1-ol]",–,–,4,64,22.6
"C[C@H](O)c1nccn1Cc1cc(-c2ccc(C#C[C@@H]3[C@H]4CNC[C@@H]34)cc2)on1 [Compound 10, (1S)-1-(1-{[5-(4-{[(1R,5S,6s)-3-Azabicyclo[3.1.0]hexan-6-yl]ethynyl}phenyl)-1,2-oxazol-3-yl]methyl}-1H-imidazol-2-yl)ethan-1-ol]",123,–,–,8,14.3
"C[C@H](O)c1nccn1Cc1cc(-c2ccc(C#C[C@@H]3[C@H]4CN(C[C@H](O)CO)C[C@@H]34)cc2)on1 [Compound 11, (2S)-3-[(1R,5S,6R)-6-({4-[3-({2-[(1S)-1-Hydroxyethyl]-1H-imidazol-1-yl}methyl)-1,2-oxazol-5-yl]phenyl}ethynyl)-3-azabicyclo[3.1.0]hexan-3-yl]propan-1,2-diol]",102,1,2,8,3.78
"C[C@H](O)c1nccn1Cc1cc(-c2ccc(C#CC3CN(C)C3)cc2)on1 [Compound 12, (1S)-1-{1-[(5-{4-[(1-Methylazetidin-3-yl)ethynyl]phenyl}-1,2-oxazol-3-yl)methyl]-1H-imidazol-2-yl}ethan-1-ol]",–,–,16,32,46
C[C@H](O)c1nccn1Cc1cc(-c2ccc(C#CC3CN(C[C@H](O)CO)C3)cc2)on1 [Compound 13],651,–,16,32,21.9
"C[C@H](O)c1nccn1Cc1cc(-c2c(F)cc(C#CCCCO)cc2F)on1 [Compound 14, 5-{3,5-Difluoro-4-[3-({2-[(1S)-1-hydroxyethyl]-1H-imidazol-1-yl}methyl)-1,2-oxazol-5-yl]phenyl}pent-4-yn-1-ol]",–,–,8,64,15.4
"C[C@H](O)c1nccn1Cc1cc(-c2ccc(C#C[C@H]3C[C@@H]3[C@@H](O)CN)cc2)on1 [Compound 15, (R)-2-Amino-1-((1 S,2S)-2-((4-(3-((2-((S)-1-hydroxyethyl)-1H-imidazol-1-yl)methyl)isoxazol-5-yl)phenyl)ethynyl)cyclopropyl)ethanol]",–,–,64,16,8.4
"C[C@H](O)c1nccn1[C@H](CO)c1cc(-c2ccc(C#CCCCO)cc2)on1 [Compound 16, 5-(4-{3-[(1S)-2-Hydroxy-1-{2-[(1S)-1-hydroxyethyl]-1H-imidazol-1-yl}ethyl]-1,2-oxazol-5-yl}phenyl)pent-4-yn-1-ol]",–,–,4,16,2.6
"CC(O)CN1C[C@@H]2[C@@H](C#Cc3ccc(-c4cc(Cn5ccnc5[C@H](C)O)on4)cc3)[C@@H]2C1 (stereo partly drawn) [Compound 121, 1-[(1R,5S,6s)-6-({4-[5-((2-[(1S)-1-hydroxyethyl]-1H-imidazol-1-yl}methyl)-1,2-oxazol-3-yl]phenyl}ethynyl)-3-azabicyclo[3.1.0]hexan-3-yl]propan-2-ol]",98.5,0.5,1,16,–
"C[C@H](O)c1nccn1Cc1cc(-c2ccc(C#C[C@@H]3[C@H]4CN(CCN)C[C@@H]34)cc2)on1 [Compound 122, (1S)-1-(1-{[5-(4-{[(1R,5S,6s)-3-(2-aminoethyl)-3-azabicyclo[3.1.0]hexan-6-yl]ethynyl}phenyl)-1,2-oxazol-3-yl]methyl}-1H-imidazol-2-yl)ethan-1-ol]",84.6,4,4,4,–
"C[C@H](O)c1nccn1Cc1cc(-c2ccc(C#CC3CCN(C=O)CC3)cc2)on1 [Compound 127, 4-({4-[3-({2-[(1S)-1-hydroxyethyl]-1H-imidazol-1-yl}methyl)-1,2-oxazol-5-yl]phenyl}ethynyl)piperidine-1-carbaldehyde]",60.1,2,2,> 64,–
"CC(O)CN1CCC(C#Cc2ccc(-c3cc(Cn4ccnc4[C@H](C)O)no3)cc2)CC1 (stereo partly drawn) [Compound 128, 1-[4-((4-[3-({2-[(1S)-1-hydroxyethyl]-1H-imidazol-1-yl]methyl)-1,2-oxazol-5-yl]phenyl}ethynyl)piperidin-1-yl]propan-2-ol]",331,8,16,> 128,–
